“Also recorded” adds a separate entry of the source.
Legend:
[1] = system: T. b. brucei Lister 427 cells; experiment: T. brucei cell viability analysis; assay type: cell-based; conditions: Trypanosoma brucei, 48 h, read-out: IC50 against T. brucei cells, bloodstream form T. b. brucei Lister 427, 48 hrs, MTS
[2] = target: tubulin polymerization in T. brucei cells (Trypanosoma brucei rhodesiense, UniProt P04106+P04107); assay type: cell-based; conditions: different doses, 7 hrs, western blot with TAT-1 antibody
tubulin polymerization in T. brucei cells, sequence (P04106 whole entry): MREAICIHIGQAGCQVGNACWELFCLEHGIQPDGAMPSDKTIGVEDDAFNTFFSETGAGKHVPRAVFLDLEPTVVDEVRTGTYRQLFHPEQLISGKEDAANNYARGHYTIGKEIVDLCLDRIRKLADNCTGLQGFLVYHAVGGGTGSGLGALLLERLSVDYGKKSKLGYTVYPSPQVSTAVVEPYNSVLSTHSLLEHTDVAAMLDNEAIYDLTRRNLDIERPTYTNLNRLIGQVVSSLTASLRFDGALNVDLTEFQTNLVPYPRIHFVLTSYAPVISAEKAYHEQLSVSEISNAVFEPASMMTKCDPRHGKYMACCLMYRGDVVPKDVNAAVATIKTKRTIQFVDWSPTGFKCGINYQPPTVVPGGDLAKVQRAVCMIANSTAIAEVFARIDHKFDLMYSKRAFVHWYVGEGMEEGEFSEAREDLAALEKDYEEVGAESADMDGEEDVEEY
tubulin polymerization in T. brucei cells, sequence (P04107 whole entry): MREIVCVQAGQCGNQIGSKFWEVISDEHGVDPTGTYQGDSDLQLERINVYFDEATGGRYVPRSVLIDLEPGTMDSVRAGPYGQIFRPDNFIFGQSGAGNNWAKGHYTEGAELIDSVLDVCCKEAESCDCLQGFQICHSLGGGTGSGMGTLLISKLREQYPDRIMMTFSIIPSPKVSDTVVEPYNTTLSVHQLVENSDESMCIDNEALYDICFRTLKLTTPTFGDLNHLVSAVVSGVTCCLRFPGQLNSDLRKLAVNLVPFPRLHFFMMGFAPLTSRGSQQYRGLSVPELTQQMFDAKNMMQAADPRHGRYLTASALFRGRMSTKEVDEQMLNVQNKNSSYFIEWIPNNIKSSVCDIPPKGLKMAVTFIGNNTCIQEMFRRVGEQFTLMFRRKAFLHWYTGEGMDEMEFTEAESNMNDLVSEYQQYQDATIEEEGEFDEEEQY

| Compound | IC50 [1] [µM] | amount of polymerized tubulin in T. brucei cells [2] |
| --- | --- | --- |
| CN(c1ccc(NC(=O)c2cc(C(F)(F)F)cc(C(F)(F)F)c2)cc1OCc1ccc(C(F)(F)F)cc1)S(=O)(=O)Cc1ccccc1 [Compound 11, N-(4-(N-methyl-1-phenylmethylsulfonamido)-3-((4-(trifluoromethyl)benzyl)oxy)phenyl)-3,5-bis(trifluor omethyl)benzamide] | < 5 |  |
| CN(c1ccc(NC(=O)c2ccc(C#N)cc2)cc1OCc1ccc(C(F)(F)F)cc1)S(=O)(=O)Cc1ccccc1 [Compound 15, 4-cyano-N-(4-(N-methyl-1-phenylmethylsulfonamido)-3-((4-(trifluoromethyl)benzyl)oxy)phenyl)benzamide] |  | decreased the amount of polymerized tubulin in a dose-dependent manner; also recorded: level of polymerized tubulin is significantly decreased |
